Results on 1 compound are retold here after patent US20090053280A1, “COATING STENTS WITH CYCLIC RGD PEPTIDES OR MIMETICS” (priority 2007, published 2009).

The test system of the experiment is Human umbilical vein endothelial cells. In words: Millicell migration assay of HUVECs towards a cyclic RGD peptide coated membrane. The following applies: 2 hours, uncoated membranes. It counts as cell-based. How it is done: FIG. 7 (Example 5): Bar graph showing the results of migration assays utilizing specialized Millicell culture plates for in vitro testing. HUVECs were seeded onto the inside surface of Millicell membranes and semi-quantified following migration through a microporous membrane at the outside surface after two hours of incubation.
Millicell culture plate inserts from Millipore were coated with cyclic RGD peptide at the outside surface of the microporous membrane only to stimulate haplotactic cell migration. Human umbilical vein endothelial cells (HUVCEs) were loaded into millicell chambers in completed medium in the presence or absence of paclitaxel or sirolimus, and subsequently incubated for 2 hours at 37 C.°.

Entries after “also recorded” stand apart in the source; their conditions may differ.

With `CC(=O)O[C@H]1C(=O)[C@@]2(C)[C@H]([C@H](OC(=O)c3ccccc3)[C@]3(O)C[C@H](OC(=O)[C@H](O)[C@@H](NC(=O)c4ccccc4)c4ccccc4)C(C)=C1C3(C)C)[C@]1(OC(C)=O)CO[C@@H]1C[C@@H]2O` [paclitaxel], the “Cell migration in the presence of the antiproliferative drug” value is on record as “marked decrease; also recorded: almost completely abolished”.
